# Patent US20130172294A1, “Treatment with VB-201” (Vascular Biogenics Ltd., priority 2010, published 2013)
# Assay: Effect of food and capsule coating on single-dose pharmacokinetics (Example 3)
# Assay type: in vivo, human
# Procedure: Determination of VB-201 concentrations in plasma was performed using an HPLC-MS/MS (high performance liquid chromatography with tandem mass spectrometric detection) assay. Calibration was for a range of from 5 to 500 ng/ml for low doses and from 50 to 5000 ng/ml for high doses. Pharmacokinetic parameters were estimated by using a non-compartmental method, except for the AUC (area under curve), which was determined using a (log-) trapezoidal rule as the area above the previous trough level. All calculations were made using PKWizard (developed by Russell Barbare and Dr. […] was validated against WinNonlin (Pharsight Corp.), which is an FDA-recognized validated program. Pharmacokinetic parameters were calculated by the program according to standard methods used in the art. Calculation of the pharmacokinetic characteristics was based on the actual blood sampling time (in hours), with predose times set to zero. Concentrations below the LLOQ (lower limit of quantification; 4.974 ng/ml) were assumed to be zero. The effects of food on the pharmacokinetics of enteric coated and non-coated VB-201 capsules were investigated in a double-blind, placebo-controlled study in healthy subjects. Cohorts of six subjects each received a single dose of 10 mg, 2×10 mg or 20 mg VB-201 in the morning. […] Subjects were randomly assigned to receive the drug when fed (i.e., following completion of a standardized high fat meal) or when fasting (i.e., fasting for at least 10 hours). […] Subjects then underwent an additional 8 day washout period, after which subjects underwent a second administration. Subjects who received the first administration when fasting, received the second administration when fed, and subjects who received the first administration when fed, received the second administration when fasting. Following the second administration, blood samples were taken at the same times post-dose as previously. Concentration-time curves were constructed for time periods of up to 144 hours. Pharmacokinetic parameters were calculated based on data for the first 24 hours and for the whole 144 hours. […] Nevertheless, parameters were also calculated from data covering the first 24 hours in order to compare parameters with previous studies. Statistical comparisons of doses, coated vs. non-coated capsules, feeding vs. fasting and coating-feeding interactions were performed using a mixed model ANOVA in an SAS 8.02 software package (SAS Institute, Cary, N.C.) using PROC MIXED
smiles,measurement,setting,value
"CCCCCCCCCCCCCCCCOCC(COP(=O)([O-])OCC[N+](C)(C)C)OCCCCC(=O)O (stereo not drawn) [VB-201, 1-hexadecyl-2-(4′-carboxybutyl)-glycerol-3-phosphocholine]","AUC (0-infinity, from 24)",1 × 10 mg coated fasting,4801 ng·h/mL
same,"AUC (0-infinity, from 144)",1 × 10 mg coated fasting,8017 ng·h/mL
same,AUC(0-24),1 × 10 mg coated fasting,2602 ng·h/mL
same,AUC(0-144),1 × 10 mg coated fasting,7397 ng·h/mL
same,AUMC (0-24),1 × 10 mg coated fasting,33556 hours^2*ng/ml
same,AUMC (0-infinity),1 × 10 mg coated fasting,467760 hours^2*ng/ml
same,Cl/F (0-24),1 × 10 mg coated fasting,3.293 L/h
same,Cl/F (from 144),1 × 10 mg coated fasting,1.580 L/h
same,Cmax,1 × 10 mg coated fasting,171.4 ng/mL
same,Ke (from 24),1 × 10 mg coated fasting,0.0438 h⁻¹
same,Ke (from 144),1 × 10 mg coated fasting,0.0201 h⁻¹
same,MTT (0-24),1 × 10 mg coated fasting,12.8 h
same,MTT (from 144),1 × 10 mg coated fasting,60.7 h
same,T1/2 (from 24),1 × 10 mg coated fasting,17.8 h
same,T1/2 (from 144),1 × 10 mg coated fasting,37.6 h
same,Tmax,1 × 10 mg coated fasting,9.33 h
same,"AUC (0-infinity, from 24)",1 × 10 mg coated fed,5898 ng·h/mL
same,"AUC (0-infinity, from 144)",1 × 10 mg coated fed,9751 ng·h/mL
same,AUC(0-24),1 × 10 mg coated fed,2202 ng·h/mL
same,AUC(0-144),1 × 10 mg coated fed,8583 ng·h/mL
same,AUMC (0-24),1 × 10 mg coated fed,32798 hours^2*ng/ml
same,AUMC (0-infinity),1 × 10 mg coated fed,699311 hours^2*ng/ml
same,Cl/F (0-24),1 × 10 mg coated fed,1.883 L/h
same,Cl/F (from 144),1 × 10 mg coated fed,1.091 L/h
same,Cmax,1 × 10 mg coated fed,186.4 ng/mL
same,Ke (from 24),1 × 10 mg coated fed,0.0352 h⁻¹
same,Ke (from 144),1 × 10 mg coated fed,0.0166 h⁻¹
same,MTT (0-24),1 × 10 mg coated fed,15.1 h
same,MTT (from 144),1 × 10 mg coated fed,70.7 h
same,T1/2 (from 24),1 × 10 mg coated fed,23.4 h
same,T1/2 (from 144),1 × 10 mg coated fed,45.0 h
same,Tmax,1 × 10 mg coated fed,13.67 h
same,"AUC (0-infinity, from 24)",1 × 10 mg non-coated fasting,9375 ng·h/mL
same,"AUC (0-infinity, from 144)",1 × 10 mg non-coated fasting,15995 ng·h/mL
same,AUC(0-24),1 × 10 mg non-coated fasting,5759 ng·h/mL
same,AUC(0-144),1 × 10 mg non-coated fasting,14544 ng·h/mL
same,AUMC (0-24),1 × 10 mg non-coated fasting,67186 hours^2*ng/ml
same,AUMC (0-infinity),1 × 10 mg non-coated fasting,924243 hours^2*ng/ml
same,Cl/F (0-24),1 × 10 mg non-coated fasting,1.184 L/h
same,Cl/F (from 144),1 × 10 mg non-coated fasting,0.695 L/h
same,Cmax,1 × 10 mg non-coated fasting,364.5 ng/mL
same,Ke (from 24),1 × 10 mg non-coated fasting,0.0575 h⁻¹
same,Ke (from 144),1 × 10 mg non-coated fasting,0.0190 h⁻¹
same,MTT (0-24),1 × 10 mg non-coated fasting,11.7 h
same,MTT (from 144),1 × 10 mg non-coated fasting,54.2 h
same,T1/2 (from 24),1 × 10 mg non-coated fasting,13.6 h
same,T1/2 (from 144),1 × 10 mg non-coated fasting,39.7 h
same,Tmax,1 × 10 mg non-coated fasting,7.67 h
same,"AUC (0-infinity, from 24)",1 × 10 mg non-coated fed,7019 ng·h/mL
same,"AUC (0-infinity, from 144)",1 × 10 mg non-coated fed,16062 ng·h/mL
same,AUC(0-24),1 × 10 mg non-coated fed,4855 ng·h/mL
same,AUC(0-144),1 × 10 mg non-coated fed,13717 ng·h/mL
same,AUMC (0-24),1 × 10 mg non-coated fed,60611 hours^2*ng/ml
same,AUMC (0-infinity),1 × 10 mg non-coated fed,1254665 hours^2*ng/ml
same,Cl/F (0-24),1 × 10 mg non-coated fed,1.552 L/h
same,Cl/F (from 144),1 × 10 mg non-coated fed,0.702 L/h
same,Cmax,1 × 10 mg non-coated fed,343.3 ng/mL
same,Ke (from 24),1 × 10 mg non-coated fed,0.0670 h⁻¹
same,Ke (from 144),1 × 10 mg non-coated fed,0.0180 h⁻¹
same,MTT (0-24),1 × 10 mg non-coated fed,12.5 h
same,MTT (from 144),1 × 10 mg non-coated fed,70.3 h
same,T1/2 (from 24),1 × 10 mg non-coated fed,11.2 h
same,T1/2 (from 144),1 × 10 mg non-coated fed,47.7 h
same,Tmax,1 × 10 mg non-coated fed,10.17 h
same,"AUC (0-infinity, from 24)",1 × 20 mg coated fasting,9794 ng·h/mL
same,"AUC (0-infinity, from 144)",1 × 20 mg coated fasting,15637 ng·h/mL
same,AUC(0-24),1 × 20 mg coated fasting,5362 ng·h/mL
same,AUC(0-144),1 × 20 mg coated fasting,14579 ng·h/mL
same,AUMC (0-24),1 × 20 mg coated fasting,68472 hours^2*ng/ml
same,AUMC (0-infinity),1 × 20 mg coated fasting,849853 hours^2*ng/ml
same,Cl/F (0-24),1 × 20 mg coated fasting,3.188 L/h
same,Cl/F (from 144),1 × 20 mg coated fasting,2.387 L/h
same,Cmax,1 × 20 mg coated fasting,366.3 ng/mL
same,Ke (from 24),1 × 20 mg coated fasting,0.0385 h⁻¹
same,Ke (from 144),1 × 20 mg coated fasting,0.0203 h⁻¹
same,MTT (0-24),1 × 20 mg coated fasting,12.8 h
same,MTT (from 144),1 × 20 mg coated fasting,53.8 h
same,T1/2 (from 24),1 × 20 mg coated fasting,19.9 h
same,T1/2 (from 144),1 × 20 mg coated fasting,35.6 h
same,Tmax,1 × 20 mg coated fasting,8.17 h
same,"AUC (0-infinity, from 24)",1 × 20 mg coated fed,20054 ng·h/mL
same,"AUC (0-infinity, from 144)",1 × 20 mg coated fed,16687 ng·h/mL
same,AUC(0-24),1 × 20 mg coated fed,4655 ng·h/mL
same,AUC(0-144),1 × 20 mg coated fed,14968 ng·h/mL
same,AUMC (0-24),1 × 20 mg coated fed,66330 hours^2*ng/ml
same,AUMC (0-infinity),1 × 20 mg coated fed,1070977 hours^2*ng/ml
same,Cl/F (0-24),1 × 20 mg coated fed,1.400 L/h
same,Cl/F (from 144),1 × 20 mg coated fed,1.583 L/h
same,Cmax,1 × 20 mg coated fed,306.6 ng/mL
same,Ke (from 24),1 × 20 mg coated fed,0.0230 h⁻¹
same,Ke (from 144),1 × 20 mg coated fed,0.0179 h⁻¹
same,MTT (0-24),1 × 20 mg coated fed,14.9 h
same,MTT (from 144),1 × 20 mg coated fed,62.9 h
same,T1/2 (from 24),1 × 20 mg coated fed,53.2 h
same,T1/2 (from 144),1 × 20 mg coated fed,39.6 h
same,Tmax,1 × 20 mg coated fed,11.67 h
